Patent US20130109635A1, “Humanin Decreases Liver Fat and Visceral Fat Accumulation” (priority 2011, published 2013)

Assays:
[1] = tested on: triglyceride secretion from liver; assay: Acute ICV infusion of HNG with tyloxapol injection, plasma TG levels, rats; assay type: in vivo, Sprague-Dawley rats
Method: (§1) The effect of humanin analog, HNG, on hepatic lipid fluxes was investigated. In the acute study, HNG was infused into third ventricle (ICV) of awake, unstressed and chronically catheterized Sprague-Dawley rats and C57BLK6 mice and studied plasma triglyceride (TG) levels following an injection of Tyloxapol (Triton WR1339, Sigma-Aldrich Corp, St. Louis, Mo.), an inhibitor of TG clearance. Groups of animals were also challenged with high fat diet (HFD) of 60% fat for one month and were treated with either daily injections of saline or of HNG (2 mg/kg). Body weight and Food intake were monitored twice a week. At the end of one month, liver fat was assessed both by histology and estimation of tissue triglycerides and plasma was collected. Total amount of visceral fat (VF) was determined and the specific depots were meticulously dissected and weighed. Tissue samples were snap-frozen for subsequent analysis.
Acute effects of Humanin on liver fluxes: The effect of HN was studied in acute and chronic treatment models. […]
(§2) With infusion of tyloxapol, there was a steady increase in plasma triglyceride levels in both groups from inhibition of TG clearance. […] The rate of TG secretion was calculated in the animals based on plasma triglyceride levels at 0 and 120 min time points using the following equation: secretion rate of TG/hr mg/min=(TG at 120 min−TG at 0 min)/number of hours.

[2] = tested on: triglyceride secretion from liver; assay: Acute ICV infusion of HNG with tyloxapol injection, plasma TG levels, mice; parameters: species or system C57BLK6 mice; conditions: mouse, in vivo
Method: as §1, §2

[3] = High fat diet (60% fat) for one month with daily injections of HNG: food intake, body weight, visceral fat, liver fat, serum lipids; assay type: in vivo, mice; conditions: HNG 2 mg/kg daily
Method: as §1
Chronic effects of Humanin on liver lipid content: Groups of animals were challenged with high fat diet (HFD-60% fat) for one month and were treated with either daily injections of saline or HNG (2 mg/kg). At the end of one month, liver fat were assessed both by histology and estimation of tissue triglycerides.

[4] = tested on: Microsomal triglyceride transport protein (MTTP); assay: Liver gene expression in HFD animals: MTTP; assay type: in vivo, mice; conditions: livers of HFD animals, HNG 2 mg/kg daily
Excerpt: (§3) To understand the mechanisms through which Humanin decreases liver lipid content, representative genes involved in lipid synthesis (SREBP-1, FAS), lipid oxidation (CPT1b) and lipid packaging and export from liver were studied. […] The role of MTTP was confirmed by studying enzyme activity.

Apo B = assay: Liver gene expression in HFD animals: Apo B; assay type: in vivo, mice; conditions: livers of HFD animals, HNG 2 mg/kg daily
Excerpt: as §3

MTTP = MTTP enzyme activity in liver of HFD animals (Roar Biomedical); assay type: in vivo, mice; conditions: HNG 2 mg/kg daily, p<0.01
Excerpt: as §3

FAS = assay: Liver gene expression in HFD animals: FAS; assay type: in vivo, mice; conditions: data not shown
Excerpt: as §3

SREBP-1 = assay: Liver gene expression in HFD animals: SREBP-1; assay type: in vivo, mice; conditions: data not shown
Excerpt: as §3

CPT1b = assay: Liver gene expression in HFD animals: CPT1b; assay type: in vivo, mice; conditions: data not shown
Excerpt: as §3

| Sequence | serum TG levels at 120 min ([1]; 120 min after tyloxapol 600 mg/kg, p<0.05 vs aCSF 4.33±0.33) | rate of TG secretion ([1]; (TG at 120 min − TG at 0 min)/number of hours, p<0.05 vs aCSF 2.23±0.16) | triglyceride secretion from liver [2] | visceral fat (VF) gain vs control ([3]; HFD for 4 weeks) | weight gain vs control ([3]; HFD for 4 weeks) | liver fat (hepatic triglyceride content) ([3]; HFD one month, p<0.05 vs control 70.83±3.74) | expression of MTTP vs control [4] | expression of Apo B vs control (Apo B) | MTTP activity vs control (MTTP) | expression of FAS vs control (FAS) | expression of SREBP-1 vs control (SREBP-1) | expression of CPT1b vs control (CPT1b) |
| --- | --- | --- | --- | --- | --- | --- | --- | --- | --- | --- | --- | --- |
| MAPRGFSCLLLLTGEIDLPVKRRA (ANALOG OF HUMAN HUMANIN PEPTIDE) [HNG] | 5.5 ± 0.29 mg/mL | 2.7 ± 0.2 mg/mL/h | increases | gained significantly less VF | gained significantly less weight | 59.78±2.24 μg/mg of tissue | significantly higher | significantly higher | significantly higher | – | – | – |
| MAPRGFSCLLLLTSEIDLPVKRRA (HOMO SAPIENS) [HN, humanin peptide] | – | – | – | – | – | – | – | – | – | no differences | no differences | no differences |
